Experimental data reported in patent publication US5665779A, “Pharmaceutical composition for inhibiting the infection with AIDS virus” (Zaidan, Hojin, Biseibutsu, Kagaku, Kenkyu, Kai, priority 1991, dated 1997).
Values after ≈ are worked out from the molar mass of the structure shown. Read-outs that look alike come from different tables or passages of the source.

Legend:
[1] = Hygroscopicity; format: physicochemical; details: colorless powdery substance, Referential Example 1
[2] = colorless powder; reported earlier; cited from earlier work
[3] = test system: HIV (HTLV-IIIB strain) in MT-4 cells (human T-cell line); test: Inhibition of infection of human T-cells (MT-4) with HIV, HIV antigen-positive cells by indirect immunofluorescence; format: cell-based; details: for EC50: MT-4 cells, read-out: 50% Effective concentration (ED50) against HIV
Method: Effects of D-β-lysylmethanediamine inhibitory to infection of human T-cells with HIV were examined in a similar manner to the assay methods described in the "Proc. Natl. Acad, Sci. USA," 80, 6061-6065 (1983); "J. Antibiot.", 40, 1077-1078, (1987); "J. Antibiot.", 42, 344-346 (1989) and "J. Antibiot." 44, 1228-1236 (1991).
1×10^5 Cells/ml of MT-4 cells (human T-cell line) in phosphate buffered saline were seeded into Costar 48-well plates in an amount of 0.5 ml/well. Each well was added with 0.05 ml of a solution of the test compound, namely D-β-lysylmethanediamine (dissolved at different concentrations of 3, 10, 30 and 100 μg per ml in phosphate buffered saline). After incubation for 2 hours at 37° C. under 5% CO2, the MT-4 cells were infected with 0.05 ml of HIV (HTLV-IIIB strain) as added in an amount of multiplicity of infection (m.o.i) of 0.025 to 0.05 in each well. The plates were incubated for 4 days at 37° C. under 5% CO2 so that the T-cells were treated in the presence of the test compound at the different concentrations.
Portions of the incubated cultures were taken and the MT-4 cells were smeared onto slide glasses, dried and fixed with acetone. The presence of the HIV antigen-positive MT-4 cells was detected by the indirect immunofluoroescent assay [Y. Hinuma et al., "Proc. Natl. Acad. Sci. USA," 78, 6476-6480, (1981) and Y. Takeuchi et al., "Gann.", 78, 11-15 (1987)]. To this end, the cell smears, that is, the acetone-fixed cell smears were treated at 37° C. for 30 minutes with such serum of AIDS patient at a dilution of 1:10 in phosphate buffered saline, which was employed as the first antibody. After washing subsequently with phosphate buffered saline, the MT-4 cells were treated at 37° C. for 30 minutes with fluorescent isothiocyanate-conjugated rabbit anti-human IgG serum (Cappel Laboratories, Cocharanville, Pa., USA), which was employed as the second antibody. After the cell smears were then washed with phosphate buffered saline and covered with a cover glass, the MT-4 cells were examined under a fluorescence microscope. Percentages of the number of the viral antigen-positive MT-4 cells (namely, immunofluorescent cells where the HIV-associated antigens were present and expressed) in total cells were calculated.
For the control tests of estimating the number of the total cells under test, the above test procedures were repeated without addition of D-β-lysylmethanediamine.
In order to evaluate the activity of D-β-lysylmethanediamine to inhibit the infection of human T-cells, namely the MT-4 cells with HIV, calculation was made of the percentages (T/C, %) of the number (T) of the HIV antigen-positive cells as measured in the above-mentioned tests where the incubation of MT-4 cells was effected in the presence of the test compound, against the number (C) of the HIV antigen-positive cells as measured in the above-mentioned control tests where the incubation of MT-4 cells was effected without the addition of the test compound. The results of such calculation of the T/C values (%) are shown in Table 1 in term of rate (%) of presence or occurrence of the HIV antigen-positive cells.

[4] = Acute toxicity in mice, intravenous; details: mouse, in vivo, read-out: Dosage tolerated without death (acute toxicity)
Method: D-β-Lysylmethanediamine used according to this invention is characterised by its low toxicity to mammalian animals. For instance, in the tests of estimating acute toxicity of this compound where mice were intravenously administered with D-β-lysylmethanediamine, the mice having received administration of D-β-lysylmethanediamine could tolerate a dosage of 250 mg/kg of D-β-lysylmethanediamine without involving their death.

[5] = target: T1, reverse transcriptase of HIV (HIV-1 M:B_HXB2R, UniProt P04585); test: Activity inhibitory to reverse transcriptase of HIV; format: biochemical; details: 100 μg/ml
T1 construct: preparation not described
Description: Thus, it is apparent that D-β-lysylmethanediamine can inhibit strongly the infection of human T-cells with HIV by any mechanism yet unknown.

[6] = target: T2, protease of HIV (HIV-1 M:B_HXB2R, UniProt P04585); test: Activity inhibitory to protease of HIV; format: biochemical; details: 100 μg/ml
T2 construct: preparation not described

[7] = Extractability with organic solvents; format: physicochemical; details: from liquid portion of the culture
[8] = test system: Gram-positive bacteria; details: J. Antibiotics 39(3), 476 (1986); Kokai Sho-62-114947; cited from earlier work
[9] = test system: MT-4 cells; test: Cytotoxicity to MT-4 cells in the absence of HIV; format: cell-based, human; details: even at a concentration of 100 μg/ml
Method: Furthermore, cytotoxicity of D-β-lysylmethanediamine to the MT-4 cells was estimated. This was done by incubating the MT-4 cells at varying concentrations of D-β-lysylmethanediamine added and in the absence of HIV but in the same manner of incubation and under the same conditions of incubation of MT-4 cells as those employed in the above-mentioned test procedures of assaying the activity of D-β-lysylmethanediamine to inhibit the infection of T-cells with HIV. That the cytotoxicity was not observed is represented by the symbol "-" in Table 1 below.

[10] = Solubility in water; format: physicochemical; details: in words
[11] = Human immunodeficiency virus 1, IIIB, MT4, 96 h

SMILES	Hygroscopicity [1]	Hygroscopicity [2]	activity at 3 µg/mL ([3]; Human immunodeficiency virus 1, IIIB, MT4, 96 h, 3 μg/ml, T/C % vs control without test compound, 4 days, 37° C., read-out: Rate (%) of presence of HIV antigen-positive cells)	activity at 10 µg/mL ([3]; Human immunodeficiency virus 1, IIIB, MT4, 96 h, 10 μg/ml, T/C % vs control without test compound, 4 days, 37° C., read-out: Rate (%) of presence of HIV antigen-positive cells)	activity at 30 µg/mL ([3]; Human immunodeficiency virus 1, IIIB, MT4, 96 h, 30 μg/ml, T/C % vs control without test compound, 4 days, 37° C., read-out: Rate (%) of presence of HIV antigen-positive cells)	activity at 100 µg/mL ([3]; Human immunodeficiency virus 1, IIIB, MT4, 96 h, 100 μg/ml, T/C % vs control without test compound, 4 days, 37° C., read-out: Rate (%) of presence of HIV antigen-positive cells)	EC50 [3, 11]	Reduction of the number of HIV antigen-positive cells (in words) ([3]; concentrations of no more than 100 μg/ml)	MTD [4]	Activity inhibitory to reverse transcriptase of HIV [5]	Activity inhibitory to protease of HIV [6]	Extraction with butanol, butyl acetate, chloroform and other organic solvents [7]	Antibacterial activity against Gram-positive bacteria [8]	Cytotoxicity (in words) [9]	Solubility in water [10]	Effect of inhibiting the infection of human T-cells with HIV compared with D-β-lysylmethanediamine (in words) ([3]; relative to D-β-lysylmethanediamine, from ED50)
NCCC[C@@H](N)CC(=O)NCN [D-β-lysylmethanediamine hemicarbonate]	hygroscopic	hygroscopic	–	–	–	–	–	–	–	–	–	–	–	–	–	–
NCCC[C@@H](N)CC(=O)NCN [D-β-lysylmethanediamine]	–	–	30%	15%	10%	5%	0.62 µg/mL (≈ 3.56 µM)	reduce significantly	≥ 250 mg/kg	neither any activity inhibitory to reverse transcriptase of HIV	nor any activity inhibitory to protease of HIV	substantially connot be extracted	weak antibacterial activity	no cytotoxicity	well soluble in water	–
OC[C@@H]1CC[C@H](n2cnc3c(O)ncnc32)O1 [DDI, 2',3'-dideoxyinosine, reference compound]	–	–	–	–	–	–	0.46 µg/mL (≈ 1.95 µM)	–	–	–	–	–	–	–	–	to the same extent
